Source: patent US20260167637A1, “NLRP3 INFLAMMASOME INHIBITOR AND USE THEREOF” (TransThera Sciences (Nanjing), Inc., priority 2022, published 2026)
Read-outs that look alike come from different tables or passages of the source.

Tests used:
[1] = target: T1, THP-1 cell NLRP3 (Homo sapiens, UniProt Q96P20); test: Inhibitory activity against cell NLRP3 inflammasomes in THP-1 cells (LPS + nigericin, ELISA of supernatant); format: cell-based; details: PMA-differentiated THP-1 cells, LPS 500 ng/mL 3 h, compound 1 h, nigericin 30 min; human IL-10 (so in the source) in supernatant by ELISA
T1 construct: endogenous in cells; host or cells: THP-1 cells, PMA-differentiated, stimulated with LPS and nigericin
T1 sequence (Q96P20 whole entry): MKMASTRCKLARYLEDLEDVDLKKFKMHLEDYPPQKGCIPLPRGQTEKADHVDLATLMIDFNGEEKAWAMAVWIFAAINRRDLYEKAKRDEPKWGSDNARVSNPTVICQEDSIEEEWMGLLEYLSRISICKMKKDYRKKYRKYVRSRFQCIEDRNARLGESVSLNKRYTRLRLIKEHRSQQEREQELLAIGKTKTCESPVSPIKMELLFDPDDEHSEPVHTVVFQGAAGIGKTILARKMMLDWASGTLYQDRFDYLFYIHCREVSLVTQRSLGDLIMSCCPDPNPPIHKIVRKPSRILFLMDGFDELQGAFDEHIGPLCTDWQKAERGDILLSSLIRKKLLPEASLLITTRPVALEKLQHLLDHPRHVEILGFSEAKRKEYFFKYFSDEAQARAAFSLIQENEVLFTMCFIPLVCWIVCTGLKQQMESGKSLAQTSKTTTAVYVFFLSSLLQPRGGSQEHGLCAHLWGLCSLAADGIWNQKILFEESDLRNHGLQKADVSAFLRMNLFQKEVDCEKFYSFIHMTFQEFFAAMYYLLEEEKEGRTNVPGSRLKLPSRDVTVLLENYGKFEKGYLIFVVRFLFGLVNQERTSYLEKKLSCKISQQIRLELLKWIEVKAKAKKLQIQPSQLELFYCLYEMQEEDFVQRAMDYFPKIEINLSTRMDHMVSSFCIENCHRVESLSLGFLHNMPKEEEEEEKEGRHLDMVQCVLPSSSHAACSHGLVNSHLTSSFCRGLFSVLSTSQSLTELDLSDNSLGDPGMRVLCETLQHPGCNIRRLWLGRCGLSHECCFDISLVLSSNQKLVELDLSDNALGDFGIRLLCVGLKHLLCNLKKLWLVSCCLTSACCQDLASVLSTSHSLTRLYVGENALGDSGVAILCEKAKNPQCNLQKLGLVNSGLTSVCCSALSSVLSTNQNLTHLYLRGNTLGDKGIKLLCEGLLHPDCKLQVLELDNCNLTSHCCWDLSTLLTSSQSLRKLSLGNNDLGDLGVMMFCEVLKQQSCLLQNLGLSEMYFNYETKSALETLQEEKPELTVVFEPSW
Experimental: Experimental Example 1: Assay for Inhibitory Activity of Compounds Disclosed Herein Against Cell NLRP3 Inflammasomes
Test substances: The compounds of the present disclosure, prepared according to the methods described in the examples.
THP-1 is an immortalized human […] cell line.
Instrument: microplate reader (made by PE)
Assay Method: 1. THP-1 cells were cultured in 1640 complete medium (500 mL of 1640+56 mL of FBS+560 μL of 1000×P/S+2 μL of mercaptoethanol), and cells at passages 3-20 were used.
2. Culture plate coating: 100 μL of polylysine solution was added to a 96-well cell culture plate. After 30 min of incubation at 37° C., the solution was discarded, and the plate was washed with PBS twice for later use.
3. Induction of THP-1 differentiation: THP-1 cells were resuspended in an appropriate amount of complete medium containing 10 ng/mL PMA to form a cell suspension with a density of 5×10^5 cells/mL. The suspension was added to the 96-well plate at 100 μL/well, and the plate was incubated overnight in a 37° C. carbon dioxide cell incubator for 16 h.
4. Stimulation of THP-1: • a. Serum-free THP-1 culture medium containing LPS was added, with the final concentration being 500 ng/mL. The plate was incubated in a 37° C. carbon dioxide cell incubator for 3 h. • b. Mother liquors of the compounds to be tested with gradient concentrations were prepared with DMSO, added to the cells, and well mixed. Dilution was finally performed in a 1:1000 ratio. The plate was incubated in a 37° C. carbon dioxide cell incubator for 1 h. • c. Nigericin was added to each well, with the final concentration being […]. The plate was incubated in a carbon dioxide cell incubator at 37° C. for 30 min. • d. The medium in the wells was transferred to a new culture plate, and after 5 min of centrifugation at 3000 rpm, the supernatant was transferred to a new 96-well plate. • e. The content of human […] in the collected cell culture supernatant samples was determined with a commercial ELISA kit by following the instructions.

[2] = Pharmacokinetic study in mice; format: in vivo, female C57BL/6J mice; details: female, C57BL/6J, mouse, plasma; for clearance: read-out: Cl—obs iv (clearance rate) (converted); for Vd: read-out: Vss iv (distribution volume); for bioavailability: po 10 mg/kg vs iv 5 mg/kg, read-out: F% (absolute bioavailability); for Tmax: median, read-out: Tmax po (time to peak plasma concentration); for Cmax: read-out: Cmax po (peak concentration)
Experimental: (§1) The compounds were prepared into solutions using a mixed vehicle composed of 5% dimethyl sulfoxide, 20% (30% solutol), and 75% normal saline. The compound solutions were intragastrically administered to female C57BL/6J mice at a dose of 10 mg/kg, and the blood collection time points were: 15 min, 30 min, 1 h, 2 h, 4 h, 6 h, 8 h, and 24 h.
as §1, with “intravenously injected into” for “intragastrically administered to”, “5” for “10”, “were: 5 min,” for “were:”
The samples to be tested were taken out from a −80° C. freezer, naturally thawed at room temperature, and then vortexed for 5 min.
Plasma samples of 10 μL from different individuals were accurately pipetted into 1.5 mL centrifuge tubes.
900 μL of a 100 ng/mL internal standard working solution (a solution of tolbutamide in acetonitrile) was added, and the mixture was well mixed.
After 5 min of vortexing, centrifugation was performed at 12,000 rpm for 5 min.
50 μL of the supernatant was accurately pipetted into a 96-well plate to which water was added in advance at 150 μL/well.
After 5 min of vortexing, LC-MS/MS analysis was performed.
The results of the test substance concentrations were output by Analyst 1.6.3 of AB Sciex.
Parameters such as mean, standard deviation, and coefficient of variation (excluding those output directly by Analyst 1.6.3) were calculated using Microsoft Excel. PK parameters were calculated using WinNonlin Phenoix 8.2 software NCA (Tmax was a median).

[3] = Stability in canine liver microsomes; format: in vitro ADME; details: dog, canine liver microsomes 0.5 mg protein/mL, 1 μM test substance, β-NADPH 1 mM, 37° C.; for half-life at 1 μM: read-out: Canine t1/2
Experimental: (§2) Experimental Example 2: Evaluation of Stability of Compounds Disclosed Herein in Liver Microsomes
(§3) Composition of experimental incubation system:
(§4) An appropriate amount of the compound was precisely weighed out and dissolved in DMSO to prepare a 10.0 mM stock solution. The 10.0 mM stock solution was diluted with DMSO to 1.0 mM, and then diluted with phosphate buffer (containing 3 mM MgCl2) to prepare a 10 μM test substance working solution for later use (DMSO content in the reaction system: 0.1%).
(§5) An appropriate amount of β-NADPH was precisely weighed out and then prepared into a 5 mM β-NADPH working solution using phosphate buffer (containing 3 mM MgCl2) for later use.
(§6) (1) The liver microsomes (20 mg protein/mL) were taken out from a −80° C. freezer and pre-incubated on a 37° C. water bath thermostatic oscillator for 3 min to thaw for later use.
(§7) (2) A mixed solution of the incubation system (without β-NADPH) was prepared according to “composition of experimental incubation system” described above, and pre-incubated on a 37° C. water bath thermostatic oscillator for 2 min.
(§8) (3) Control group (without β-NADPH): 10 μL of phosphate buffer (containing 3 mM MgCl2) and 40 μL of the mixed solution of the incubation system in step (2) were taken and mixed, and the mixture was vortexed for 30 s and mixed well, resulting in a total reaction volume of 50 μL; the sample was duplicated. The mixture was placed on a 37° C. water bath thermostatic oscillator for incubation, and timing was started, with termination time points set at 0 min and 60 min.
(§9) (4) Sample group: 10 μL of the β-NADPH solution (5 mM) and 40 μL of the mixed solution in step (2) were taken and mixed, resulting in a total reaction volume of 50 μL; the mixture was vortexed for 30 s and mixed well; the sample was duplicated. The mixture was placed on a 37° C. water bath thermostatic oscillator for incubation, and timing was started, with termination time points set at 0 min, 5 min, 10 min, 20 min, 30 min, and 60 min.
(§10) (5) The mixture was vortexed for 5 min and then centrifuged at 4000 rpm for 10 min.
(§11) (6) 50 μL of the supernatant was taken and added to 150 μL of water, and the resulting mixture was vortexed and mixed well before LC/MS/MS analysis.
(§12) The half-life (t1/2) and clearance rate (CL) were calculated using the following first-order kinetic formula
(§13) Notes: k denotes the slope of the logarithm of the remaining amount of a compound vs. time, and Vd denotes apparent volume of distribution.

[4] = Stability in rat liver microsomes; format: in vitro ADME; details: rat liver microsomes 0.5 mg protein/mL, 1 μM test substance, β-NADPH 1 mM, 37° C.; for half-life at 1 μM: read-out: Rat t1/2
Experimental: as §2, §3, §4, §5, §6, §7, §8, §9, §10, §11, §12, §13

[5] = iv 5 mg/kg, read-out: AUClast iv (0-24 h)
[6] = iv 5 mg/kg, read-out: tz1/2 iv (terminal half-life) (converted)
[7] = po 10 mg/kg, read-out: AUClast po (0-24 h)
[8] = po 10 mg/kg, read-out: tz1/2 po (terminal half-life) (converted)

SMILES	IC50 [1] [nM]	microsomal CLint at 1 μM [3] [µL/min/mg]	half-life at 1 μM [3] [h]	microsomal CLint at 1 μM [4] [µL/min/mg]	half-life at 1 μM [4] [h]	other results
CC#Cc1ccc(-c2nnc(N[C@@H]3CCCN(CCO)C3)cc2C2CC2)c(O)c1 [Compound 44, (R)-2-(4-cyclopropyl-6-((1-(2-hydroxyethyl)piperidin-3-yl)amino)pyridazin-3-yl)-5-(prop-1-yn-1-yl)phenol]	3.6					AUC(0-t) [2, 5]: 8960 ng·h/mL; clearance ([2]; iv 5 mg/kg): 9.18 mL/min/kg; Vd ([2]; iv 5 mg/kg): 2.76 L/kg; half-life [2, 6]: 3.95 h; bioavailability [2]: 69.1%; Tmax ([2]; po 10 mg/kg): 0.5 h; AUC(0-t) [2, 7]: 12400 ng·h/mL; Cmax ([2]; po 10 mg/kg): 1710 ng/mL; half-life [2, 8]: 4.05 h
C#Cc1ccc(-c2nnc(N[C@@H]3CCCN(C)C3)cc2C2CCC2)c(O)c1 [Compound 82, (R)-5-ethynyl-2-(4-cyclobutyl-6-((1-methylpiperidin-3-yl)amino)pyridazin-3-yl)phenol]	1.1	8	2.88	10.4	2.22	
C#Cc1ccc(-c2nnc(N[C@@H]3CCCC[C@H]3O)cc2C)c(O)c1 [Compound 83, 5-ethynyl-2-(6-(((1R,2R)-2-hydroxycyclohexyl)amino)-4-methylpyridazin-3-yl)phenol]	6.1	3.8	6.08	10	2.32	
[2H]C([2H])([2H])N1CCC[C@@H](Nc2nnc(-c3ccc(C#C)cc3O)c(C)n2)C1 [Compound 86, (R)-5-ethynyl-2-(5-methyl-3-((1-(methyl-d3)piperidin-3-yl)amino)-1,2,4-triazin-6-yl)phenol]	0.3	6.6	3.5	7.8	2.97	
[2H]C([2H])([2H])N1CCC[C@@H](Nc2nnc(-c3ccc(C#C)cc3O)n(C)c2=O)C1 [Compound 88, (R)-3-(4-ethynyl-2-hydroxyphenyl)-4-methyl-6-((1-(methyl-d3)piperidin-3-yl)amino)-1,2,4-triazin-5(4H)-one]	1.2	1.6	14.4	2	11.6	
C#Cc1ccc(-c2nnc(N[C@@H]3CCCN(CC)C3)cc2C2CC2)c(O)c1 [Compound 90, (R)-2-(4-cyclopropyl-6-((1-ethylpiperidin-3-yl)amino)pyridazin-3-yl)-5-ethynylphenol]	0.4					AUC(0-t) [2, 5]: 4020 ng·h/mL; clearance ([2]; iv 5 mg/kg): 20.7 mL/min/kg; Vd ([2]; iv 5 mg/kg): 6.23 L/kg; half-life [2, 6]: 3.23 h; bioavailability [2]: 94.5%; Tmax ([2]; po 10 mg/kg): 2 h; AUC(0-t) [2, 7]: 7580 ng·h/mL; Cmax ([2]; po 10 mg/kg): 900 ng/mL; half-life [2, 8]: 3.33 h
C#Cc1ccc(-c2nnc(N[C@@H]3CCCN(CC)C3)c(=O)n2C2CC2)c(O)c1 [Compound 109, (R)-4-cyclopropyl-6-((1-ethylpiperidin-3-yl)amino)-3-(4-ethynyl-2-hydroxyphenyl)-1,2,4-triazin-5(4H)-one]	16					
Cc1cc(N[C@@H]2CCCN(C)C2)nnc1-c1ccc(C#CC(F)(F)F)cc1O [Compound 111, (R)-2-(4-methyl-6-((1-methylpiperidin-3-yl)amino)pyridazin-3-yl)-5-(3,3,3-trifluoroprop-1-yn-1-yl)phenol]	1.1					
C#Cc1ccc(-c2nnc(N[C@@H]3CCCN(C)C3)c(=O)n2C(C)C)c(O)c1 [Compound 112, (R)-3-(4-Ethynyl-2-hydroxyphenyl)-4-isopropyl-6-((1-methylpiperidin-3-yl)amino)-1,2,4-triazin-5(4H)-one]	12					
C#Cc1ccc(-c2nnc(N[C@@H]3CCCNC3)cc2C)c(O)c1 [Compound 139, (R)-5-ethynyl-2-(4-methyl-6-(piperidin-3-ylamino)pyridazin-3-yl)phenol]	1.1					
C#Cc1ccc(-c2nnc(N[C@@H]3CCCNC3)cc2C(F)(F)F)c(O)c1 [Compound 161, (R)-5-ethynyl-2-(6-(piperidin-3-ylamino)-4-trifluoromethylpyridazin-3-yl)phenol]	9.9					
C#Cc1ccc(-c2nnc(N[C@@H]3CCCN(CCO)C3)cc2C(F)(F)F)c(O)c1 [Compound 163, (R)-5-ethynyl-2-(6-((1-(2-hydroxyethyl)piperidin-3-yl)amino)-4-trifluoromethylpyridazin-3-yl)phenol]	1.1					
C#Cc1ccc(-c2nnc(N[C@@H]3CCCN(CCOC)C3)cc2C2CC2)c(O)c1 [Compound 240, (R)-2-(4-cyclopropyl-6-((1-(2-methoxyethyl)piperidin-3-yl)amino)pyridazin-3-yl)-5-ethynylphenol]	1.3					
